The values that follow come from patent publication US7358263B2, “Fused bicyclic-substituted amines as histamine-3 receptor ligands” (Abbott Laboratories, priority 2006, dated 2008).

In turn, `C[C@@H]1CCCN1CCc1nc2cc(-c3ccc(C#N)cc3)ccc2o1` [Example 24E, 4-{2-[2-(2-(R)-methyl-pyrrolidin-1-yl)-ethyl]-benzooxazol-5-yl}-benzonitrile] returned a melting point of 70 to 72 °C.
